# Legend:
# bacteria = settings: long-term experiments; cited from earlier work
# [1] = Leaching test of cured plaques in artificial saliva (Ringer solution), UV/Vis spectroscopy; type: physicochemical
# Protocol: These plaques were light-cured and stored in artificial saliva (Ringer solution) for 20 days at 37° C. By UV/Vis spectroscopy, no triclosan could be found in the artificial saliva.
# Again, plaques were made from a mixture of the varnish components except for the solvent ethanol. These plaques were light-cured and stored in artificial saliva (Ringer solution) for 14 days at 37° C. By UV/Vis spectroscopy, some triclosan could be found in the artificial saliva.
structure (smiles),measurement,setting,value
"Oc1cc(Cl)ccc1Oc1ccc(Cl)cc1Cl [triclosan, 2,4,4′-trichloro-2′-hydroxydiphenyl ether]",development of bacterial resistance,bacteria,no development of bacterial resistance
same,triclosan embedded in the plaque leached out,"[1]; plaque with 6.25 wt % triclosan based on resin mixture, 20 days at 37° C.",less than 0.1 wt %
same,leaching of the overall triclosan content of the plaque,"[1]; plaque with 40 wt % triclosan, 14 days at 37° C.",0.2 wt %

# Source: patent US20010009931A1, “Protective varnish for dentin” (priority 1997, published 2001)
